This is an account of results in ChEMBL document CHEMBL1126861 (J Med Chem, 1993).

The target of test [1] is Delta-type opioid receptor (Rattus norvegicus, UniProt P33533). As to the kind of experiment: Tested for binding affinity against delta opioid receptor by displacing [3H]- DSLET radioligand from rat brain membrane preparations.
In test [2] the target is Mu-type opioid receptor (Rattus norvegicus, UniProt P33535). Nature of the test: Tested for binding affinity against mu opioid receptor fby displacing [3H]- DAMGO radioligand from rat brain membrane preparations.

Where a SMILES comes first, the peptide text is derived from it.

Delta-type opioid receptor, sequence (P33533 whole entry): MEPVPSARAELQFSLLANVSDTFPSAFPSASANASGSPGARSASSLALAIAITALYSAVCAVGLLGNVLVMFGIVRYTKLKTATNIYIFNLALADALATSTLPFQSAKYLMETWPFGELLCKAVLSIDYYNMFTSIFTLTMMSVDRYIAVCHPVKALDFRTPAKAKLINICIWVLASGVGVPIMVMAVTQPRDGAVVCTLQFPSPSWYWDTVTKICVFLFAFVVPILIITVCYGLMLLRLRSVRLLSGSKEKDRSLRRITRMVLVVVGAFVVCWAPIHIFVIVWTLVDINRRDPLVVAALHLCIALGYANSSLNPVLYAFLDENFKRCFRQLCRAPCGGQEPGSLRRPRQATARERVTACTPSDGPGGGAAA
Mu-type opioid receptor, sequence (P33535 whole entry): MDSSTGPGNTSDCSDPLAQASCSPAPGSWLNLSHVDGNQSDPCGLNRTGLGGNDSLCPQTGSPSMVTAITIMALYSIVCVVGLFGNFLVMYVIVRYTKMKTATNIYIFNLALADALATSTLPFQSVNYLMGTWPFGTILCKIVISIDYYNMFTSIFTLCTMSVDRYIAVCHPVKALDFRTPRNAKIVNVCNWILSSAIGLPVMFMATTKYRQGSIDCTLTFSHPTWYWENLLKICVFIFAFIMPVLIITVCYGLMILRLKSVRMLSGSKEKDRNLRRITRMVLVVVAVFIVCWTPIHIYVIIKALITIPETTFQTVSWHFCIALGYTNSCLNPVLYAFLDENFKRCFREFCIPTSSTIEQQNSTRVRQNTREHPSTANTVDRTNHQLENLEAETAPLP

Take `N[C@@H](Cc1ccc(O)cc1)C(=O)N1Cc2ccccc2C[C@H]1C(=O)N[C@@H](Cc1ccccc1)C(=O)N[C@@H](Cc1ccccc1)C(=O)O` (HELM PEPTIDE1{Y.[Tic].F.F}$$$$V2.0): the Ki was 0.308 nM in test [1] and 3230 nM in test [2].
As for `N[C@@H](Cc1ccc(O)cc1)C(=O)N1Cc2ccccc2C[C@H]1C(=O)N[C@@H](Cc1ccccc1)C(=O)O` (HELM PEPTIDE1{Y.[Tic].F}$$$$V2.0), in test [1], the inhibition constant (Ki) came to 1.94 nM.
For the molecule `CC(C)[C@H](NC(=O)[C@H](CC(=O)O)NC(=O)[C@H](Cc1ccccc1)NC(=O)[C@@H](C)NC(=O)[C@@H](N)Cc1ccc(O)cc1)C(=O)N[C@H](C(=O)NCC(N)=O)C(C)C` [DELTORPHIN C], the Ki was found to be 6.43 nM in test [1] and 3930 nM in test [2].
For the molecule `Oc1ccc2c3c1O[C@H]1c4[nH]c5ccccc5c4C[C@@]4(O)[C@@H](C2)N(CC2CC2)CC[C@]314` [NALTRINDOLE], in test [1], the Ki worked out at 0.182 nM.
